In patent US6391921B1 (priority 2000, dated 2002):

Columns and labels:
RBL-2H3 mast cells = test: Ionomycin or thapsigargin induced calcium mobilization in mast cells; format: cell-based, rat; details: 30 μM compound for 20 minutes, FIG. 2B
Description: An alternative mechanism for the cells to maintain low cytosolic calcium levels is the activation of cell plasma membrane calcium ATPase or calcium pump (refs 32 and 33). Therefore, the effect of compound D-58 on ionophore and thapsigargin induced calcium mobilization also was studied. Ionomycin takes extracellular calcium inside the cells, and bypasses most of the signal transduction events, whereas thapsigargin inhibits endoplasmic reticulum calcium pump, and selectively depletes IP3-sensitive storage resulting in an increase in the cytosolic calcium levels (ref 33). In summary, IgE-sensitized RBL-2H3 cells were treated with 30 μM compound D-58 for 20 minutes and challenged with DNP-BSA (20 ng/ml). The cells were then stimulated with either ionomycin (1 μM), or thapsigargin (2 μM). The arrows indicate the time points at which the cells were exposed to the agents.
The fluorescent Ca^2+ indicator, fluo-3/AM (Molecular Probes) was used to detect Ca^2+ mobilizations in individual cells (ref 25). Briefly, the IgE sensitized monolayers of mast cells were incubated with 1 μM fluo-3/AM at 37° C. for 30 minutes. After incubation the cells were washed twice and 1 ml PIPES buffer was added to the wells. […] The image acquisition and fluorescence intensity analysis were controlled by the software MetaFluor (Universal Imaging Co.). The background fluorescence was subtracted from each image.

skh-1 mice [1] = test: UVB-irradiated skin edema (skinfold thickness); format: in vivo; details: 180 mJ/cm^2 UVB
Method: Mice (skh-1) were treated daily with 20 mg/kg i.p. bolus injections of compound D-58 from day −2 (i. e. 2 days prior to UVB exposure) until the termination of the experiment. Anesthetized mice received UVB radiations to a 2.0 cm^2 area on their dorsal surface. This area was painted either with the test compound (1.5 mg/cm^2) in drug receiving mice, or with vehicle in control mice 15 minutes before irradiation. The distance between UVB lamps and surface receiving irradiation was 20 cm. The final radiation dose received by skh-1 hairless mice was 180 mJ/cm^2 which is approximately four times higher than the minimal erythema dose (MED) (ref 29) in these mice. Skinfold thickness of the back of the mice was recorded prior to, and on each day after UVB exposure for five days with a digital thickness gauge (Mitutoyo Co., Plainfield, N.J.) which measures the skinfold thickness in a 0-10 mm range with an accuracy of 0.015 mm. […] For this purpose female, hairless, albino skh-1 mice were exposed to 180 mJ/cm^2 UVB light and their skinfold thickness, as a parameter of acute inflammation, was measured on days 1 through 5 following irradiation. […] The data points represent the mean±SEM values (n=5 mice). *p<0.05 and **p<0.001 compared to vehicle-treated UVB irradiated controls were determined by Student's t test.

skh-1 mice [2] = test: Histological studies of UVB-irradiated skin; format: in vivo
Description: After mice from Example 7 were sacrificed electively, a skin specimen was removed and spread on a sheet of dental wax. An 8 mm^2 biopsy punch was taken and fixed in buffered formalin. 4-5 μm thick sections were cut from paraffin blocks. In order to study the histopathological changes in skin following UVB exposure, the tissue sections were stained with hematoxylin and eosin and the stained slides were examined microscopically.
The effects of compound D-58 on UVB-induced histological changes in skin were examined and the results are illustrated in the 40× magnifications of FIGS. 8A-8C. The normal epidermis typically has a 2-3 cell layer and contains scattered inflammatory cells especially around hair follicles (FIG. 8A). […] Large numbers of neutrophils also were accumulated in the dermis (FIG. 8B). In contrast, the skin of mice treated with compound D-58 looked very much like the skin of unirradiated controls (FIG. 8C), with 1-2 cell layers of epidermis and normal dermis.

**Q.** How did the “calcium response induced by ionomycin” value (RBL-2H3 mast cells; 1 μM ionomycin) turn out when `COc1ccc(CC(=O)c2c(O)cc(O)cc2O)cc1` [Compound D-58] was run?
**A.** did not inhibit

**Q.** And the “calcium response induced by thapsigargin” value (RBL-2H3 mast cells; 2 μM thapsigargin)?
**A.** did not inhibit

**Q.** What about the “development of skin edema after UVB exposure” value (skh-1 mice [1]; 20 mg/kg i.p. daily from day −2 plus 1.5 mg/cm^2 topical, FIG. 7) of the same compound?
**A.** effectively inhibited

**Q.** What about the skinfold thickness (skh-1 mice [1]; by 72 hours post irradiation) of the same compound?
**A.** at baseline control levels

**Q.** What about the “cell layers of epidermis” value (skh-1 mice [2]; UVB-irradiated skin of treated mice, FIG. 8C, UVB-irradiated untreated 3-5, normal 2-3) of the same compound?
**A.** 1-2

**Q.** What about the “edema and neutrophil influx in UVB irradiated skin” value (skh-1 mice [2]; histology, hematoxylin and eosin) of the same compound?
**A.** prevented the development of edema and neutrophil influx
